Counter-ions that a name gives are not always drawn. Like-named read-outs stand apart in the source and are kept apart here.

The target of the test is T1, Rec. human COMT (Homo sapiens, UniProt P21964).
T1 sequence (P21964 1-271): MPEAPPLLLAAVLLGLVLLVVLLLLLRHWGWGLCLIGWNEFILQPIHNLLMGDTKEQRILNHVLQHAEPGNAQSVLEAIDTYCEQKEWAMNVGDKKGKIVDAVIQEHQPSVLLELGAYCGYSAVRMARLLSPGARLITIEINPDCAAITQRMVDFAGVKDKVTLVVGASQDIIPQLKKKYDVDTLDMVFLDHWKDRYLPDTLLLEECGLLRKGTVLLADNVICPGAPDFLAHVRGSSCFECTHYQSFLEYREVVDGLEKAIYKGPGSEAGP
The experiment in a line: COMT-Fluorescence Assay. The test is classed as biochemical. The conditions noted are these: rec. human COMT 25 nM, 4-Nitrocatechol-Alexa488 200 nM, SAM 500 nM. As to the method: This intramolecular interaction is disturbed if the 4-Nitrocatechol is methylated. […] This increase of fluorescence intensity can be followed in a kinetic measurement. The slope in the linear range of the kinetic is calculated. An inhibitor compound decreases the slope.
Signal [rfu/min]=(rfu(end-point)−rfu(startpoint))/incubation_time_#2

Where [1] appears, read: COMT-fluorescence assay, read-out: IC50.

With `COc1ccc(-c2cc(O)c3nc[nH]c(=O)c3c2)cc1` [Example 135, 8-Hydroxy-6-(4-methoxy-phenyl)-3H-quinazolin-4-one], the midpoint of inhibition (IC50, COMT-fluorescence assay), the IC50, lay at 10 nM.

With `Cc1ncc(-c2cc(O)c3nc[nH]c(=O)c3c2)n1C` [Example 87, 6-(1,2-Dimethyl-1H-imidazol-5-yl)-8-hydroxyquinazolin-4(3H)-one], the IC50 under setting [1] was found to be 230 nM.

On to `O=c1[nH]cnc2c(O)cc(-c3ccccc3COCCC3CCN(CC(F)(F)F)CC3)c(Cl)c12` [Example 120, 5-Chloro-8-hydroxy-6-(2-((2-(1-(2,2,2-trifluoroethyl)piperidin-4-yl)ethoxy)methyl)phenyl)quinazolin-4(3H)-one 2,2,2-trifluoroacetate], for which the IC50 under setting [1] was found to be 90 nM.

As for `COc1ccccc1Cc1cc(O)c2nc[nH]c(=O)c2c1` [Example 14, 8-Hydroxy-6-(2-methoxybenzyl)quinazolin-4(3H)-one], the IC50 under setting [1] was 4900 nM.

For the compound `O=c1[nH]cnc2c(O)cc(-c3cnn(-c4ccc(F)cc4)c3)cc12` [Example 152, 6-[1-(4-Fluoro-phenyl)-1H-pyrazol-4-yl]-8-hydroxy-3H-quinazolin-4-one], the half-inhibitory concentration (IC50) under setting [1] was found to be 70 nM.

In the case of `CC(=O)Nc1ccccc1-c1cc(O)c2nc[nH]c(=O)c2c1` [Example 159, N-(2-(8-Hydroxy-4-oxo-3,4-dihydroquinazolin-6-yl)phenyl)acetamide], the IC50 under setting [1] turned out to be 550 nM.

`COC(=O)c1csc(-c2cc(O)c3nc[nH]c(=O)c3c2)n1` [Example 84, Methyl 2-(8-hydroxy-4-oxo-3,4-dihydroquinazolin-6-yl)thiazole-4-carboxylate]: the IC50 under setting [1] was found to be 110 nM.

`O=c1[nH]cnc2c(O)cc(-c3ccccc3OC(F)(F)F)cc12` [Example 145, 8-Hydroxy-6-(2-trifluoromethoxy-phenyl)-3H-quinazolin-4-one]: the IC50 under setting [1] came to 70 nM.

`O=c1[nH]cnc2c(O)c(F)c(-c3ccc(F)cc3)c(-c3ccc(F)cc3)c12` [Example 123, 7-Fluoro-5,6-bis(4-fluorophenyl)-8-hydroxyquinazolin-4(3H)-one]: the IC50 under setting [1] is 10 nM.

On to `COc1ncccc1-c1cc(O)c2nc[nH]c(=O)c2c1` [Example 162, 8-Hydroxy-6-(2-methoxypyridin-3-yl)quinazolin-4(3H)-one], for which the half-maximal inhibitory concentration (IC50) under setting [1] worked out at 30 nM.

`O=c1[nH]cnc2c(O)cc(-c3ccc(N4CCNCC4)nc3)cc12` [Example 184, 8-Hydroxy-6-(6-(piperazin-1-yl)pyridin-3-yl)quinazolin-4(3H)-one]: the half-maximal inhibitory concentration (IC50) under setting [1] turned out to be 20 nM.

On to `CN(C)c1cccc(-c2cc(O)c3nc[nH]c(=O)c3c2)c1` [Example 148, 6-(3-Dimethylamino-phenyl)-8-hydroxy-3H-quinazolin-4-one], for which, under setting [1], the concentration for half-maximal inhibition (IC50) was found to be 10 nM.

Take `O=c1[nH]cnc2c(O)cc(-c3cnc4ccccn34)cc12` [Example 86, 8-Hydroxy-6-(imidazo[1,2-a]pyridin-3-yl)quinazolin-4(3H)-one]: the IC50 under setting [1] was determined as 30 nM.

For the compound `O=c1[nH]cnc2c(O)c(F)cc(-c3ccc(F)cc3)c12` [Example 124, 7-Fluoro-5-(4-fluorophenyl)-8-hydroxyquinazolin-4(3H)-one], the half-inhibitory concentration (IC50) under setting [1] amounted to 200 nM.

Take `O=c1[nH]cnc2c(O)cc(-c3ccc(F)cc3)c(-c3ccccc3)c12` [Example 49, 6-(4-Fluorophenyl)-8-hydroxy-5-phenylquinazolin-4(3H)-one]: the IC50 under setting [1] is 20 nM.

In the case of `O=c1[nH]cnc2c(O)cc(-c3cccnc3OCC(F)(F)F)cc12` [Example 216, 8-Hydroxy-6-(2-(2,2,2-trifluoroethoxy)pyridin-3-yl)quinazolin-4(3H)-one], the IC50 under setting [1] was found to be 40 nM.

For the compound `Cc1ccc(O)c2nc[nH]c(=O)c12` [Example 140, 8-Hydroxy-5-methylquinazolin-4(3H)-one], the IC50 under setting [1] came to 5040 nM.

With `CN1CCc2cc(-c3cc(O)c4nc[nH]c(=O)c4c3)ccc21` [Example 40, 8-Hydroxy-6-(1-methylindolin-5-yl)quinazolin-4(3H)-one 1:1 salt with trifluoroacetate], the IC50 (IC50, COMT-fluorescence assay) stood at 10 nM.

For the compound `O=C(c1cccc(-c2cc(O)c3nc[nH]c(=O)c3c2)c1)N1CCC(F)(F)CC1` [Example 199, 6-[3-(4,4-Difluoro-piperidine-1-carbonyl)-phenyl]-8-hydroxy-3H-quinazolin-4-one], the IC50 under setting [1] amounted to 20 nM.

As for `Cn1cc(-c2cc(O)c3nc[nH]c(=O)c3c2)c(C(F)(F)F)n1` [Example 82, 8-Hydroxy-6-(1-methyl-3-(trifluoromethyl)-1H-pyrazol-4-yl)quinazolin-4(3H)-one], the IC50 under setting [1] was determined as 40 nM.

Turning to `CCN(CC)C(=O)c1ccc(-c2c(-c3ccc(F)cc3)cc(O)c3nc[nH]c(=O)c23)cc1` [Example 55, N,N-Diethyl-4-(6-(4-fluorophenyl)-8-hydroxy-4-oxo-3,4-dihydroquinazolin-5-yl)benzamide], under setting [1], the IC50 stood at 10 nM.

As for `COc1cccc(Cc2cc(O)c3nc[nH]c(=O)c3c2)c1` [Example 15, 8-Hydroxy-6-(3-methoxybenzyl)quinazolin-4(3H)-one], under setting [1], the IC50 came out at 1200 nM.

As for `O=c1[nH]cnc2c(O)cc(-c3ccccc3Cc3ccccc3)cc12` [Example 98, 6-(2-Benzylphenyl)-8-hydroxyquinazolin-4(3H)-one], the concentration for half-maximal inhibition (IC50) under setting [1] was 40 nM.

With `O=c1[nH]cnc2c(O)cc(Oc3ccc(F)cc3)cc12` [Example 189, 6-(4-Fluorophenoxy)-8-hydroxyquinazolin-4(3H)-one], the IC50 under setting [1] amounted to 840 nM.

As for `Cn1nc(C(F)(F)F)cc1-c1cc(O)c2nc[nH]c(=O)c2c1` [Example 154, 8-Hydroxy-6-(2-methyl-5-trifluoromethyl-2H-pyrazol-3-yl)-3H-quinazolin-4-one], the IC50 under setting [1] was determined as 20 nM.

As to `O=c1[nH]cnc2c(O)cc(-c3ccc(O)cc3)cc12` [Example 129, 8-Hydroxy-6-(4-hydroxyphenyl)quinazolin-4(3H)-one], it took 30 nM to reach half-maximal inhibition (IC50, COMT-fluorescence assay) (IC50).

Turning to `O=c1[nH]cnc2c(O)cc(CCc3ccccc3)cc12` [Example 16, 8-Hydroxy-6-phenethylquinazolin-4(3H)-one], the IC50 under setting [1] was determined as 560 nM.

Turning to `CCOc1cc(Cl)ccc1-c1cc(O)c2nc[nH]c(=O)c2c1` [Example 215, 6-(4-Chloro-2-ethoxyphenyl)-8-hydroxyquinazolin-4(3H)-one], under “IC50, COMT-fluorescence assay”, the midpoint of inhibition, the IC50, lay at 70 nM.

As to `O=c1[nH]cnc2c(O)cc(Br)c([N+](=O)[O-])c12` [Example 44, 6-Bromo-8-hydroxy-5-nitro-3H-quinazolin-4-one], the IC50 under setting [1] amounted to 110 nM.

In the case of `O=c1[nH]cnc2c(O)cc(-c3ccccc3-c3ccccc3)cc12` [Example 214, 6-(Biphenyl-2-yl)-8-hydroxyquinazolin-4(3H)-one], the IC50 under setting [1] worked out at 640 nM.

As for `O=c1[nH]cnc2c(O)cc(-c3ccc(F)cc3)c(Br)c12` [Example 122, 5-Bromo-6-(4-fluorophenyl)-8-hydroxyquinazolin-4(3H)-one], under setting [1], the IC50 came out at 10 nM.

In the case of `Cc1c(-c2cc(O)c3nc[nH]c(=O)c3c2)cnn1-c1ccccc1` [Example 204, 8-Hydroxy-6-(5-methyl-1-phenyl-1H-pyrazol-4-yl)quinazolin-4(3H)-one], the IC50 under setting [1] stood at 20 nM.

Turning to `Cc1c(Br)cc2c(=O)[nH]cnc2c1O` [Example 136, 6-Bromo-8-hydroxy-7-methylquinazolin-4(3H)-one], the IC50 under setting [1] is 3210 nM.

As to `COCc1ncccc1-c1cc(O)c2nc[nH]c(=O)c2c1` [Example 110, 8-Hydroxy-6-(2-(methoxymethyl)pyridin-3-yl)quinazolin-4(3H)-one bis(2,2,2-trifluoroacetate)], under setting [1], the IC50 turned out to be 20 nM.

As to `CS(=O)(=O)c1cccc(-c2cc(O)c3nc[nH]c(=O)c3c2)c1` [Example 157, 8-Hydroxy-6-(3-(methylsulfonyl)phenyl)quinazolin-4(3H)-one], the IC50 (IC50, COMT-fluorescence assay) came out at 20 nM.

On to `CS(=O)(=O)c1ccc(Cl)c(-c2cc(O)c3nc[nH]c(=O)c3c2)c1` [Example 48, 6-(2-Chloro-5-methanesulfonyl-phenyl)-8-hydroxy-3H-quinazolin-4-one], for which the IC50 under setting [1] was found to be 50 nM.

In the case of `O=c1[nH]cnc2c(O)cc(C3=CCCCC3)cc12` [Example 186, 6-Cyclohexenyl-8-hydroxyquinazolin-4(3H)-one], the IC50 under setting [1] was found to be 30 nM.

Under “IC50, COMT-fluorescence assay”, `O=c1[nH]cnc2c(O)cc(-c3ccccc3Cl)cc12` [Example 132, 6-(2-Chlorophenyl)-8-hydroxyquinazolin-4(3H)-one] yielded an IC50 of 20 nM.

For `O=c1[nH]cnc2c(O)c(F)c(-c3ccc(F)cc3)cc12` [Example 201, 7-Fluoro-6-(4-fluorophenyl)-8-hydroxyquinazolin-4(3H)-one], the IC50 under setting [1] was determined as 20 nM.

As to `O=c1[nH]cnc2c(O)cc(Cl)cc12` [Example 139, 6-Chloro-8-hydroxyquinazolin-4(3H)-one], the IC50 under setting [1] amounted to 290 nM.

With `CN1CCC(CCOCc2ccccc2-c2cc(O)c3nc[nH]c(=O)c3c2)CC1` [Example 256, 8-Hydroxy-6-(2-((2-(1-methylpiperidin-4-yl)ethoxy)methyl)phenyl)quinazolin-4(3H)-one], under setting [1], the IC50 came to 36 nM.

Take `CC(C)c1cc(O)c2nc[nH]c(=O)c2c1` [Example 13, 8-Hydroxy-6-isopropylquinazolin-4(3H)-one]: the IC50 under setting [1] came out at 1000 nM.

Turning to `O=c1[nH]cnc2c(O)c(Br)c(-c3ccc(F)cc3)c(Br)c12` [Example 34, 5,7-Dibromo-6-(4-fluorophenyl)-8-hydroxyquinazolin-4(3H)-one], the IC50 under setting [1] was found to be 170 nM.

With `O=c1[nH]cnc2c(O)cc(Br)c(F)c12` [Example 196, 6-Bromo-5-fluoro-8-hydroxyquinazolin-4(3H)-one], the IC50 under setting [1] is 120 nM.

For orientation: IC50 means the midpoint of a concentration-inhibition curve.

The record behind these values is patent US9656971B2, “COMT inhibitors” (Hoffmann-La Roche Inc., priority 2012, dated 2017).
